Target: KDM1A (Homo sapiens, UniProt O60341)
Assay: HRP-coupled fluorometric demethylase assay with recombinant KDM1A (H2O2/HRP counter-screen); dialysis and dilution reversibility; cell thermal shift in MGC-803
Assay type: biochemical

## Oc1ccc(OCc2ccccc2)cc1 [monobenzone]
  IC50: 451 nM

Reference: PMC8084583, “Monobenzone, a Novel and Potent KDM1A Inhibitor, Suppresses Migration of Gastric Cancer Cells” (Frontiers in Pharmacology, 2021)
